Structures can show the parent of a compound that is named as a salt.
assay: in vitro; conditions: rat, gh3-tre-luc cells, AC50 (uM) modified / 1000

`CCCOCCO` [2-Propoxyethanol] and `CC(C)=CCC/C(C)=C/C=O` [3,7-Dimethyl-2,6-octadienal] cannot be ordered by CC50 at 24 h: greater than 90 µM for the first, greater than 90 µM for the second.

`CN1CCN(CC(=O)N2c3ccccc3C(=O)Nc3cccnc32)CC1` [Pirenzepine] and `CNc1cc(OC)c(C(=O)N[C@@H]2CCN(Cc3ccccc3)[C@@H]2C)cc1Cl` (racemic) [Nemonapride] cannot be ordered by CC50 at 24 h: greater than 50 µM for the first, greater than 50 µM for the second.

Going from `CCC(C)(C)c1ccc(CC(C)CN2C[C@@H](C)O[C@@H](C)C2)cc1` (stereo partly shown) [Amorolfine] to `CCN1CCCC1CNC(=O)c1cc(S(=O)(=O)CC)ccc1OC` (stereo not shown) [Sultopride hydrochloride], the CC50 at 24 h rises from 11.1 µM to greater than 50 µM.

Going from `Nc1ncc([N+](=O)[O-])s1` [2-Amino-5-nitrothiazole] to `Nc1ccc([N+](=O)[O-])c(N)c1` [4-Nitro-1,3-benzenediamine], the CC50 at 24 h falls from greater than 90 µM to 64.4 µM.

`CC(CNC1CCCCC1)OC(=O)c1ccccc1` (stereo not shown) [Hexylcaine hydrochloride] and `O=C(O)c1cccc(/C=C2/C[C@@H]3[C@@H](/C=C/[C@@H](O)C4CCCCC4)[C@H](O)C[C@@H]3O2)c1` [Taprostene sodium salt] cannot be ordered by CC50 at 24 h: greater than 20 µM for the first, greater than 50 µM for the second.

`COc1nc(N)nc2c1ncn2[C@@H]1O[C@H](CO)[C@@H](O)[C@@H]1O` [Nelarabine] and `CCOC(=O)c1cnc2c(cnn2CC)c1NN=C(C)C` [Etazolate hydrochloride] cannot be ordered by CC50 at 24 h: greater than 50 µM for the first, greater than 50 µM for the second.

`Nc1cc(C(=O)O)ccc1Cl` [3-Amino-4-chlorobenzoic acid] and `O=C(c1ccccc1)c1ccc(O)cc1` [4-Hydroxybenzophenone] cannot be ordered by CC50 at 24 h: greater than 90 µM for the first, greater than 90 µM for the second.

First: O=[N+]([O-])c1cc(I)c(O)c(I)c1 [2,6-Diiodo-4-nitrophenol]
Second: O=[N+]([O-])c1ccc2ncccc2c1 [6-Nitroquinoline]
The CC50 at 24 h of the first is lower: 24.5 µM for the first, greater than 90 µM for the second.

`Cc1ccncc1` [4-Methylpyridine] and `Cc1cccc([N+](=O)[O-])c1C` [1,2-Dimethyl-3-nitrobenzene] cannot be ordered by CC50 at 24 h: greater than 100 µM for the first, greater than 90 µM for the second.

Compared with `Cc1ccc(N=Nc2c(O)c(C(=O)O)cc3ccccc23)c(S(=O)(=O)O)c1` [D&C Red No. 7], `COc1ccc(-c2coc3cc(O)cc(O)c3c2=O)cc1` [Biochanin A] is higher in CC50 at 24 h: 27.6 µM for the first, greater than 90 µM for the second.

`N[C@@H](Cc1cc(I)c(Oc2ccc(O)c(I)c2)c(I)c1)C(=O)O` [3,5,3ʹ-Triiodothyronine] and `CC(=O)N(CC(O)CO)c1c(I)c(C(=O)NCC(O)CO)c(I)c(C(=O)NCC(O)CO)c1I` (mixture of isomers) [Iohexol] cannot be ordered by CC50 at 24 h: greater than 70 µM for the first, greater than 50 µM for the second.

`C/C=C(C)/C=C/C=C(C)C` [2,6-Dimethyl-2,4,6-octatriene] and `COC(=O)/C=C/C(C)=C\C=C\C(C)=C\C=C\C=C(C)\C=C\C=C(C)\C=C\C(=O)O` [Bixin] cannot be ordered by CC50 at 24 h: greater than 90 µM for the first, greater than 90 µM for the second.

First: CCN(Cc1cccc(S(=O)(=O)O)c1)c1ccc(C(=C2C=CC(=[N+](CC)Cc3cccc(S(=O)(=O)O)c3)C=C2)c2ccccc2S(=O)(=O)[O-])cc1 [FD&C Blue No. 1]
Second: O=C(Nc1ccc(S(=O)(=O)N2CCOCC2)cc1)c1cc(Cl)ccc1NS(=O)(=O)c1ccc(Cl)s1 [Ataciguat]
The CC50 at 24 h of the first is 2.1-fold higher: 50.7 µM for the first, 24 µM for the second.

`CC(=O)Oc1c(C)c(C)c2c(c1C)CC[C@@](C)(CCC[C@H](C)CCC[C@H](C)CCCC(C)C)O2` (racemic) [dl-alpha-Tocopheryl acetate] and `C[C@]12CC[C@@H]3c4ccc(OS(=O)(=O)O)cc4CC[C@H]3[C@@H]1CCC2=O` [Estropipate] cannot be ordered by CC50 at 24 h: greater than 90 µM for the first, greater than 50 µM for the second.

Compared with `CN(C)CC[C@@H](c1ccc(Cl)cc1)c1ccccn1` [Dexchlorpheniramine hydrochloride], `[O-][n+]1cc[n+]([O-])c2ccccc21` [Quindoxin] is higher in CC50 at 24 h: 24.8 µM for the first, greater than 50 µM for the second.

same assay, conditions: rat, gh3-tre-luc cells, AC50 (uM) modified / 1000, Tox21_110001=Tox21_200321; viability, 1 nM T3 present, 24 h

For `O=C(O)c1cc(Cl)ccc1Cl` [2,5-Dichlorobenzoic acid], the CC50 at 24 h was greater than 90 µM.

same assay, conditions: rat, gh3-tre-luc cells, AC50 (uM) modified / 1000, Tox21_110001=Tox21_200325; viability, 1 nM T3 present, 24 h

Compound `O=C(O)c1cccc(Cl)c1` [3-Chlorobenzoic acid] has a CC50 at 24 h greater than 90 µM.

same assay, conditions: rat, gh3-tre-luc cells, AC50 (uM) modified / 1000, Tox21_110001=Tox21_200821; viability, 1 nM T3 present, 24 h

Compound `O=[N+]([O-])c1ccccc1CCl` [2-Nitrobenzyl chloride] has a CC50 at 24 h greater than 90 µM.

same assay, conditions: rat, gh3-tre-luc cells, AC50 (uM) modified / 1000, Tox21_110001=Tox21_201511; viability, 1 nM T3 present, 24 h

Compound `O=P(Oc1ccccc1)(Oc1ccccc1)Oc1ccccc1` [Triphenyl phosphate] has a CC50 at 24 h greater than 90 µM.

Source: article PMC6792352, “Limited Chemical Structural Diversity Found to Modulate Thyroid Hormone Receptor in the Tox21 Chemical Library” (Environmental Health Perspectives, 2019)
